Data: patent publication US6538106B1, “Compositions and methods for treating infections using analogues of indolicidin” (priority 1996, dated 2003)
Where “and” joins values, the source holds several entries; their conditions need not be identical. Equal values may be shown once. Read-outs that look alike come from different tables or passages of the source.

Tests used:
Type in all cases: cell-based
S. aureus = test: Synergy assay (agarose dilution, FIC); settings: for Mupirocin Comb. MIC: MIC of Mupirocin in combination with the peptide; for Peptide Comb. MIC: MIC of peptide in combination with Mupirocin; for Peptide MIC: peptide alone; for Ciprofloxacin Comb. MIC: MIC of Ciprofloxacin in combination with the peptide; for Peptide Comb MIC: MIC of peptide in combination with Ciprofloxacin
Method: (§1) Briefly, one assay for in vitro anti-bacterial activity, the agarose dilution assay, is set up with an array of plates that each contain a combination of peptide analogue and antibiotic in various concentrations. The plates are inoculated with bacterial isolates, incubated, and the MICs of the components recorded. […] Antibiotics used in testing include, but are not limited to, penicillins, cephalosporins, carbacephems, cephamycins, carbapenems, monobactams, aminoglycosides, glycopeptides, quinolones, tetracyclines, macrolides, and fluoroquinolones (see Table 1 below).
(§2) Synergy is calculated according to the formula below. An FIC of ≦0.5 is evidence of synergy, although combinations with higher values may be therapeutically useful. [formula]
Synergy is assayed using the agarose dilution technique, where an array of plates, each containing a combination of peptide and antibiotic in a unique concentration mix, is inoculated with the bacterial isolates. Synergy is investigated for peptide analogues in combination with a number of conventional antibiotics including, but not limited to, penicillins, cephalosporins, carbapenems, monobactams, aminoglycosides, macrolides, fluoroquinolones.
(§3) Synergy is expressed as a Fractional Inhibitory Concentration (FIC), which is calculated according to the equation below. An FIC of less than or equal to 0.5 is evidence of synergy, although combinations with higher values may be therapeutically useful. [formula]

P. aeruginosa = test: Synergy assay (agarose dilution, FIC); settings: for Mupirocin Comb. MIC: MIC of Mupirocin in combination with the peptide; for Peptide Comb. MIC: MIC of peptide in combination with Mupirocin
Method: as §1, §2
(§4) Treatment with a combination of peptide analogues and conventional antibiotics can have a synergistic effect. Synergy is assayed using the agarose dilution technique, where an array of plates, each containing a combination of peptide and antibiotic in a unique concentration mix, is inoculated with the bacterial isolates. Synergy is investigated for peptide analogues in combination with a number of conventional antibiotics including, but not limited to, penicillins, cephalosporins, carbapenems, monobactams, aminoglycosides, macrolides, fluoroquinolones.
as §3

P. vulgaris = test: Synergy assay (agarose dilution, FIC); settings: P. vulgaris SBPV1; for Mupirocin Comb. MIC: MIC of Mupirocin in combination with the peptide; for Peptide Comb. MIC: MIC of peptide in combination with Mupirocin; for FIC: peptide + Mupirocin; for Peptide MIC: peptide alone
Method: as §1, §2, §4, §3

E. faecalis = test: Synergy assay (agarose dilution, FIC); settings: E. faecalis EFS8; for Mupirocin Comb. MIC: MIC of Mupirocin in combination with the peptide; for Peptide Comb. MIC: MIC of peptide in combination with Mupirocin; for FIC: peptide + Mupirocin; for Peptide MIC: peptide alone
Method: as §1, §2, §4, §3

S. epidermidis = test: Broth dilution assay (MIC); settings: S. epidermidis SE005
Method: This assay also uses calcium and magnesium supplemented Mueller Hinton broth as the growth medium. Typically 100 μl of broth is dispensed into each well of a 96-well microtitre plate and 100 μl volumes of two-fold serial dilutions of the peptide analogue are made across the plate. One row of wells receives no peptide and is used as a growth control. Each well is inoculated with approximately 5×10^5 CFU of bacteria and the plate is incubated at 35-37° C. for 16-20 hours.
For example, MIC values were established for a series of peptide analogues against S. aureus strains.

E. coli = test: Synergy assay (agarose dilution, FIC); settings: for Mupirocin Comb. MIC: MIC of Mupirocin in combination with the peptide; for Peptide Comb. MIC: MIC of peptide in combination with Mupirocin; for FIC: peptide + Mupirocin; for Peptide MIC: peptide alone
Method: as §1, §2, §4, §3

S. marcescens = test: Synergy assay (agarose dilution, FIC); settings: for Mupirocin Comb. MIC: MIC of Mupirocin in combination with the peptide; for Peptide Comb. MIC: MIC of peptide in combination with Mupirocin; for FIC: peptide + Mupirocin; for Peptide MIC: peptide alone
Method: as §1, §2, §4, §3

bacteria = tested on: bacteria
[1] = S. aureus SBSA3, peptide + Mupirocin
[2] = P. aeruginosa PA3, peptide + Mupirocin
[3] = S. aureus SBSA4, peptide + Mupirocin

C/C(=C\C(=O)OCCCCCCCCC(=O)O)C[C@@H]1OC[C@H](C[C@@H]2O[C@H]2[C@@H](C)[C@H](C)O)[C@@H](O)[C@H]1O [Mupirocin, reference compound]
MIC (S. aureus; Staphylococcus aureus, S. aureus SBSA5, Mupirocin alone): 30 µg/mL | Mupirocin MIC (P. aeruginosa; P. aeruginosa PA24, Mupirocin alone): >100 µg/mL | MIC (P. vulgaris; Proteus vulgaris, Mupirocin alone): 3 µg/mL | MIC (E. faecalis; Enterococcus faecalis, Mupirocin alone): 100 µg/mL

I L K K F P F F P F R R K [MBI 11A1CN]
Mupirocin Comb. MIC (S. aureus; S. aureus SBSA3): 100 µg/mL | Peptide Comb. MIC (S. aureus; S. aureus SBSA3): >128 µg/mL | FIC (S. aureus; [1]): 2 | Mupirocin Comb. MIC (S. aureus; S. aureus SBSA5): 10 µg/mL | Peptide Comb. MIC (S. aureus; S. aureus SBSA5): 32 µg/mL | FIC (S. aureus; S. aureus SBSA5, peptide + Mupirocin): 0.58 | MIC (S. epidermidis): 16 µg/mL | Mupirocin Comb. MIC (P. aeruginosa; P. aeruginosa PA3): >100 µg/mL | Peptide Comb. MIC (P. aeruginosa; P. aeruginosa PA3): >128 µg/mL | FIC (P. aeruginosa; [2]): 2 | Mupirocin Comb. MIC (E. coli; E. coli ECO1): 10 µg/mL | Peptide Comb. MIC (E. coli; E. coli ECO1): 4 µg/mL | FIC (E. coli; E. coli ECO1): 0.14 | Mupirocin Comb. MIC (E. faecalis): 100 µg/mL | Peptide Comb. MIC (E. faecalis): >128 µg/mL | FIC (E. faecalis): 2 | Mupirocin Comb. MIC (S. marcescens; S. marcescens SBSM1): >100 µg/mL | Peptide Comb. MIC (S. marcescens; S. marcescens SBSM1): >128 µg/mL | FIC (S. marcescens; S. marcescens SBSM1): 2

I L K K W P W W P W K [MBI 11G13CN]
Mupirocin Comb. MIC (S. aureus; S. aureus SBSA3): 100 µg/mL | Peptide Comb. MIC (S. aureus; S. aureus SBSA3): 64 µg/mL | FIC (S. aureus; [1]): 2 | Peptide MIC (S. aureus; S. aureus SBSA3): 64 µg/mL | Mupirocin Comb. MIC (E. coli; E. coli ECO5): 30 µg/mL | Peptide Comb. MIC (E. coli; E. coli ECO5): 8 µg/mL | FIC (E. coli; E. coli ECO5): 0.43 | Peptide MIC (E. coli; E. coli ECO5): 64 µg/mL | Mupirocin Comb. MIC (P. vulgaris): 3 µg/mL | Peptide Comb. MIC (P. vulgaris): >128 µg/mL and 64 µg/mL | FIC (P. vulgaris): 2 and 1.25 | Peptide MIC (P. vulgaris): >128 µg/mL | Mupirocin Comb. MIC (S. marcescens; S. marcescens SBSM1): >100 µg/mL | Peptide Comb. MIC (S. marcescens; S. marcescens SBSM1): >128 µg/mL | FIC (S. marcescens; S. marcescens SBSM1): 2 | Peptide MIC (S. marcescens; S. marcescens SBSM1): >128 µg/mL

I L K K W P W W P W R K [MBI 11B4CN]
Mupirocin Comb. MIC (S. aureus; S. aureus SBSA3): 10 µg/mL | Peptide Comb. MIC (S. aureus; S. aureus SBSA3): 16 µg/mL | FIC (S. aureus; [1]): 0.60 | Peptide MIC (S. aureus; S. aureus SBSA3): 32 µg/mL | Mupirocin Comb. MIC (S. aureus; S. aureus SBSA4): >100 µg/mL | Peptide Comb. MIC (S. aureus; S. aureus SBSA4): 8 µg/mL | FIC (S. aureus; [3]): 2 | Peptide MIC (S. aureus; S. aureus SBSA4): 8 µg/mL | Mupirocin Comb. MIC (E. coli; E. coli ECO1): 10 µg/mL | Peptide Comb. MIC (E. coli; E. coli ECO1): 4 µg/mL | FIC (E. coli; E. coli ECO1): 0.26 | Peptide MIC (E. coli; E. coli ECO1): 16 µg/mL | Mupirocin Comb. MIC (E. faecalis): 100 µg/mL | Peptide Comb. MIC (E. faecalis): 64 µg/mL | FIC (E. faecalis): 2 | Peptide MIC (E. faecalis): 64 µg/mL | Mupirocin Comb. MIC (S. marcescens; S. marcescens SBSM1): >100 µg/mL | Peptide Comb. MIC (S. marcescens; S. marcescens SBSM1): >128 µg/mL | FIC (S. marcescens; S. marcescens SBSM1): 2 | Peptide MIC (S. marcescens; S. marcescens SBSM1): >128 µg/mL

I L K K W P W W P W R R K [MBI 11CAN]
MIC (bacteria; A. calcoaceticus AC002, listed as MBI 11ACN): 2 µg/mL | MIC (bacteria; E. coli ECO005, listed as MBI 11ACN): 16 µg/mL | MIC (bacteria; E. faecalis EFS004, listed as MBI 11ACN): 8 µg/mL | MIC (bacteria; K. pneumoniae KP001, listed as MBI 11ACN): 16 µg/mL | MIC (bacteria; S. epidermidis SE010, listed as MBI 11ACN): 4 µg/mL | MIC (bacteria; S. maltophilia SMA002, listed as MBI 11ACN): 64 µg/mL

I L K K Y P Y Y P Y R R K [MBI 11A3CN]
Mupirocin Comb. MIC (S. aureus; S. aureus SBSA2): >100 µg/mL | Peptide Comb. MIC (S. aureus; S. aureus SBSA2): 128 µg/mL | FIC (S. aureus; S. aureus SBSA2, peptide + Mupirocin): 2 | Mupirocin Comb. MIC (P. aeruginosa; P. aeruginosa PA3): >100 µg/mL | Peptide Comb. MIC (P. aeruginosa; P. aeruginosa PA3): >128 µg/mL | FIC (P. aeruginosa; [2]): 2 | Mupirocin Comb. MIC (E. coli; E. coli SBECO1): 30 µg/mL | Peptide Comb. MIC (E. coli; E. coli SBECO1): 8 µg/mL | FIC (E. coli; E. coli SBECO1): 0.43 | Mupirocin Comb. MIC (E. faecalis): 100 µg/mL | Peptide Comb. MIC (E. faecalis): >128 µg/mL | FIC (E. faecalis): 2 | Mupirocin Comb. MIC (S. marcescens; S. marcescens SBSM2): >100 µg/mL | Peptide Comb. MIC (S. marcescens; S. marcescens SBSM2): >128 µg/mL | FIC (S. marcescens; S. marcescens SBSM2): 2

K R R W V W W V W R L I [MBI 11F4CNR]
MIC (bacteria; S. epidermidis SE010): 8 µg/mL

W R I W K P K W R L P K W [MBI 11D18CN]
Ciprofloxacin Comb. MIC (S. aureus; S. aureus SA10): 32 µg/mL | Peptide Comb MIC (S. aureus; S. aureus SA10): 2 µg/mL | FIC (S. aureus; S. aureus SA10, peptide + Ciprofloxacin): 2.00 | Peptide MIC (S. aureus; S. aureus SA10): 2 µg/mL | Ciprofloxacin Comb. MIC (S. aureus; S. aureus SA14): 8 µg/mL | Peptide Comb MIC (S. aureus; S. aureus SA14): 4 µg/mL | FIC (S. aureus; S. aureus SA14, peptide + Ciprofloxacin): 1.00 | Peptide MIC (S. aureus; S. aureus SA14): 8 µg/mL | Mupirocin Comb. MIC (S. aureus; S. aureus SBSA4): 0.1 µg/mL | Peptide Comb. MIC (S. aureus; S. aureus SBSA4): 2 µg/mL | FIC (S. aureus; [3]): 0.13 | Peptide MIC (S. aureus; S. aureus SBSA4): 16 µg/mL | Mupirocin Comb. MIC (P. aeruginosa; P. aeruginosa PA2): 30 µg/mL | Peptide Comb. MIC (P. aeruginosa; P. aeruginosa PA2): 64 µg/mL | FIC (P. aeruginosa; P. aeruginosa PA2, peptide + Mupirocin): 0.53 | Peptide MIC (P. aeruginosa; P. aeruginosa PA2, peptide alone): 128 µg/mL | Ciprofloxacin Comb. MIC (P. aeruginosa; P. aeruginosa PA24, MIC of Ciprofloxacin in combination with the peptide): 4 µg/mL | Mupirocin Comb. MIC (P. aeruginosa; P. aeruginosa PA24): >100 µg/mL | Peptide Comb MIC (P. aeruginosa; P. aeruginosa PA24, MIC of peptide in combination with Ciprofloxacin): 16 µg/mL | Peptide Comb. MIC (P. aeruginosa; P. aeruginosa PA24): >128 µg/mL | FIC (P. aeruginosa; P. aeruginosa PA24, peptide + Ciprofloxacin): 0.31 | FIC (P. aeruginosa; P. aeruginosa PA24, peptide + Mupirocin): 2 | Peptide MIC (P. aeruginosa; P. aeruginosa PA24, peptide alone (Ciprofloxacin table)): >128 µg/mL | Peptide MIC (P. aeruginosa; P. aeruginosa PA24, peptide alone (Mupirocin table)): >128 µg/mL | Mupirocin Comb. MIC (E. coli; E. coli SBECO2): 10 µg/mL | Peptide Comb. MIC (E. coli; E. coli SBECO2): 1 µg/mL | FIC (E. coli; E. coli SBECO2): 0.07 | Peptide MIC (E. coli; E. coli SBECO2): 16 µg/mL | Mupirocin Comb. MIC (P. vulgaris): 3 µg/mL | Peptide Comb. MIC (P. vulgaris): 4 µg/mL | FIC (P. vulgaris): 1.13 | Peptide MIC (P. vulgaris): 32 µg/mL | Mupirocin Comb. MIC (E. faecalis): 100 µg/mL | Peptide Comb. MIC (E. faecalis): 16 µg/mL | FIC (E. faecalis): 2 | Peptide MIC (E. faecalis): 16 µg/mL | Mupirocin Comb. MIC (S. marcescens; S. marcescens SBSM1): 30 µg/mL | Peptide Comb. MIC (S. marcescens; S. marcescens SBSM1): 64 µg/mL | FIC (S. marcescens; S. marcescens SBSM1): 0.28 | Peptide MIC (S. marcescens; S. marcescens SBSM1): >128 µg/mL
